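Growth conditions: 96-well plates. Treatment: test compound, 48 hours, 5 concentrations. Analysis: linear interpolation between bracketing concentrations; unreached endpoints set to highest concentration. Here, GI50 denotes the concentration required for 50% inhibition of growth. TGI marks complete inhibition of growth.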
Experiments:
Assay in all cases: growth of human tumour cells (NCI), 48 h
SN12C renal = test system: SN12C renal
HCT-15 colon = test system: HCT-15 colon
786-0 renal = test system: 786-0 renal
TK-10 renal = test system: TK-10 renal
SNB-75 CNS = test system: SNB-75 CNS
IGROV1 ovarian = test system: IGROV1 ovarian
U251 CNS = test system: U251 CNS
SR leukemia = test system: SR leukemia
HOP-92 NSCLC = test system: HOP-92 NSCLC
NCI-H460 lung = test system: NCI-H460 lung
SK-MEL-5 melanoma = test system: SK-MEL-5 melanoma
DU-145 prostate = test system: DU-145 prostate
SNB-19 CNS = test system: SNB-19 CNS
MOLT-4 leukemia = test system: MOLT-4 leukemia
SW-620 colon = test system: SW-620 colon
UACC-62 melanoma = test system: UACC-62 melanoma
M14 melanoma = test system: M14 melanoma
SK-OV-3 ovarian = test system: SK-OV-3 ovarian
OVCAR-4 ovarian = test system: OVCAR-4 ovarian
OVCAR-3 ovarian = test system: OVCAR-3 ovarian
T-47D breast = test system: T-47D breast
COLO 205 colon = test system: COLO 205 colon
CAKI-1 renal = test system: CAKI-1 renal
SF-268 CNS = test system: SF-268 CNS
SK-MEL-2 melanoma = test system: SK-MEL-2 melanoma
HCT-116 colon = test system: HCT-116 colon
MDA-MB-435 = test system: MDA-MB-435
RXF 393 renal = test system: RXF 393 renal
MCF7 breast = test system: MCF7 breast
HS 578T breast = test system: HS 578T breast
OVCAR-8 ovarian = test system: OVCAR-8 ovarian
PC-3 prostate = test system: PC-3 prostate
LOX IMVI melanoma = test system: LOX IMVI melanoma
UACC-257 melanoma = test system: UACC-257 melanoma
A549 NSCLC = test system: A549 NSCLC
BT-549 breast = test system: BT-549 breast
MDA-MB-231 breast = test system: MDA-MB-231 breast
K-562 leukemia = test system: K-562 leukemia
UO-31 renal = test system: UO-31 renal
NCI-H226 lung = test system: NCI-H226 lung
HT29 colon = test system: HT29 colon
SF-539 CNS = test system: SF-539 CNS
HOP-62 NSCLC = test system: HOP-62 NSCLC
SK-MEL-28 melanoma = test system: SK-MEL-28 melanoma
SF-295 CNS = test system: SF-295 CNS
MALME-3M melanoma = test system: MALME-3M melanoma
HL-60(TB) leukemia = test system: HL-60(TB) leukemia
EKVX NSCLC = test system: EKVX NSCLC
NCI-H23 lung = test system: NCI-H23 lung
NCI/ADR-RES ovarian = test system: NCI/ADR-RES ovarian
ACHN renal = test system: ACHN renal
KM12 colon = test system: KM12 colon
OVCAR-5 ovarian = test system: OVCAR-5 ovarian
NCI-H522 lung = test system: NCI-H522 lung
RPMI-8226 leukemia = test system: RPMI-8226 leukemia
CCRF-CEM leukemia = test system: CCRF-CEM leukemia
A498 renal = test system: A498 renal
HCC-2998 colon = test system: HCC-2998 colon

Structure (SMILES): O=c1ccc(N=Nc2ccccc2)ccc1O
- TGI (SN12C renal): 34.6 µM
- TGI (HCT-15 colon): 19.8 µM
- TGI (786-0 renal): 58 µM
- TGI (TK-10 renal): 60.2 µM
- TGI (SNB-75 CNS): 57.8 µM
- TGI (IGROV1 ovarian): 34.6 µM
- TGI (U251 CNS): 20.2 µM
- TGI (SR leukemia): 22.2 µM
- TGI (HOP-92 NSCLC): 41.1 µM
- TGI (NCI-H460 lung): 97.8 µM
- TGI (SK-MEL-5 melanoma): 23.6 µM
- TGI (DU-145 prostate): 39.3 µM
- TGI (SNB-19 CNS): > 100 µM
- TGI (MOLT-4 leukemia): 25.1 µM
- TGI (SW-620 colon): 22.5 µM
- TGI (UACC-62 melanoma): 25.4 µM
- TGI (M14 melanoma): 28.5 µM
- TGI (SK-OV-3 ovarian): > 100 µM
- TGI (OVCAR-4 ovarian): 69.1 µM
- TGI (OVCAR-3 ovarian): 22 µM
- TGI (T-47D breast): 42.4 µM
- TGI (COLO 205 colon): 31.7 µM
- TGI (CAKI-1 renal): 29.4 µM
- TGI (SF-268 CNS): > 100 µM
- TGI (SK-MEL-2 melanoma): 47.5 µM
- TGI (HCT-116 colon): 26 µM
- TGI (MDA-MB-435): 30.7 µM
- TGI (RXF 393 renal): > 100 µM
- TGI (MCF7 breast): > 100 µM
- TGI (HS 578T breast): 35.3 µM
- TGI (OVCAR-8 ovarian): 43.9 µM
- TGI (PC-3 prostate): 28.6 µM
- TGI (LOX IMVI melanoma): 17.4 µM
- TGI (UACC-257 melanoma): 51.7 µM
- TGI (A549 NSCLC): 27.8 µM
- TGI (BT-549 breast): 56.6 µM
- TGI (MDA-MB-231 breast): 36.9 µM
- TGI (K-562 leukemia): > 100 µM
- TGI (UO-31 renal): 70.9 µM
- TGI (NCI-H226 lung): 24.3 µM
- TGI (HT29 colon): 32.1 µM
- TGI (SF-539 CNS): 37.2 µM
- TGI (HOP-62 NSCLC): 24.4 µM
- TGI (SK-MEL-28 melanoma): 32.9 µM
- TGI (SF-295 CNS): 20.9 µM
- TGI (MALME-3M melanoma): 27.9 µM
- TGI (HL-60(TB) leukemia): 51.2 µM
- TGI (EKVX NSCLC): 81.1 µM
- TGI (NCI-H23 lung): 31.5 µM
- TGI (NCI/ADR-RES ovarian): 29.6 µM
- TGI (ACHN renal): 26 µM
- TGI (KM12 colon): 24.9 µM
- TGI (OVCAR-5 ovarian): 47.4 µM
- TGI (NCI-H522 lung): 56.3 µM

Structure (SMILES): CCCCNc1ncnc2c1cnn2-c1ccccc1
- GI50 (RPMI-8226 leukemia): 3.76 µM
- TGI (RPMI-8226 leukemia): > 28.3 µM
- GI50 (SN12C renal): 6.18 µM
- TGI (SN12C renal): > 100 µM
- GI50 (HCT-15 colon): 947 nM
- TGI (HCT-15 colon): > 50.1 µM
- GI50 (786-0 renal): 8.9 µM
- TGI (786-0 renal): 53 µM
- GI50 (TK-10 renal): 5.35 µM
- TGI (TK-10 renal): > 57.9 µM
- GI50 (SNB-75 CNS): 2110 nM
- TGI (SNB-75 CNS): 39.9 µM
- GI50 (IGROV1 ovarian): 2220 nM
- TGI (IGROV1 ovarian): > 100 µM
- GI50 (U251 CNS): 2840 nM
- TGI (U251 CNS): > 61.8 µM
- GI50 (CCRF-CEM leukemia): 5.24 µM
- TGI (CCRF-CEM leukemia): > 100 µM
- GI50 (SR leukemia): 444 nM
- TGI (SR leukemia): > 100 µM
- GI50 (HOP-92 NSCLC): 3.21 µM
- TGI (HOP-92 NSCLC): 55.6 µM
- GI50 (NCI-H460 lung): 1610 nM
- TGI (NCI-H460 lung): > 43.1 µM
- GI50 (A498 renal): 4.32 µM
- TGI (A498 renal): > 100 µM
- GI50 (SK-MEL-5 melanoma): 1190 nM
- TGI (SK-MEL-5 melanoma): 11.1 µM
- GI50 (DU-145 prostate): 3.47 µM
- TGI (DU-145 prostate): 32.1 µM
- GI50 (SNB-19 CNS): 8.69 µM
- TGI (SNB-19 CNS): > 100 µM
- GI50 (MOLT-4 leukemia): 3.75 µM
- TGI (MOLT-4 leukemia): > 100 µM
- GI50 (SW-620 colon): 709 nM
- TGI (SW-620 colon): > 100 µM
- GI50 (UACC-62 melanoma): 5.04 µM
- TGI (UACC-62 melanoma): > 100 µM
- GI50 (HCC-2998 colon): 5.72 µM
- TGI (HCC-2998 colon): 37.8 µM
- GI50 (M14 melanoma): 1420 nM
- TGI (M14 melanoma): > 45.8 µM
- GI50 (SK-OV-3 ovarian): 3.2 µM
- TGI (SK-OV-3 ovarian): 31.2 µM
- GI50 (OVCAR-4 ovarian): 18.3 µM
- TGI (OVCAR-4 ovarian): > 100 µM
- GI50 (OVCAR-3 ovarian): 1460 nM
- TGI (OVCAR-3 ovarian): 5.16 µM
- GI50 (T-47D breast): 3.71 µM
- TGI (T-47D breast): 52.8 µM
- GI50 (COLO 205 colon): 1150 nM
- TGI (COLO 205 colon): 11.7 µM
- GI50 (CAKI-1 renal): 2090 nM
- TGI (CAKI-1 renal): > 40.8 µM
- GI50 (SF-268 CNS): 9.78 µM
- TGI (SF-268 CNS): > 84.5 µM
- GI50 (SK-MEL-2 melanoma): 2820 nM
- TGI (SK-MEL-2 melanoma): > 100 µM
- GI50 (HCT-116 colon): 1320 nM
- TGI (HCT-116 colon): > 100 µM
- GI50 (MDA-MB-435): 237 nM
- TGI (MDA-MB-435): 0.7 µM
- GI50 (RXF 393 renal): 1970 nM
- TGI (RXF 393 renal): 8.26 µM
- GI50 (MCF7 breast): 2110 nM
- TGI (MCF7 breast): > 100 µM
- GI50 (HS 578T breast): 3.48 µM
- TGI (HS 578T breast): 58.2 µM
- GI50 (OVCAR-8 ovarian): 4.62 µM
- TGI (OVCAR-8 ovarian): > 88.1 µM
- GI50 (PC-3 prostate): 2380 nM
- TGI (PC-3 prostate): 56.9 µM
- GI50 (LOX IMVI melanoma): 3.7 µM
- TGI (LOX IMVI melanoma): > 100 µM
- GI50 (UACC-257 melanoma): 11 µM
- TGI (UACC-257 melanoma): > 83.8 µM
- GI50 (A549 NSCLC): 5.29 µM
- TGI (A549 NSCLC): > 92.8 µM
- GI50 (BT-549 breast): 6.71 µM
- TGI (BT-549 breast): > 69 µM
- GI50 (MDA-MB-231 breast): 16.9 µM
- TGI (MDA-MB-231 breast): 73 µM
- GI50 (UO-31 renal): 7.44 µM
- TGI (UO-31 renal): 71.2 µM
- GI50 (NCI-H226 lung): 13.7 µM
- TGI (NCI-H226 lung): 86.1 µM
- GI50 (HT29 colon): 565 nM
- TGI (HT29 colon): 13.8 µM
- GI50 (SF-539 CNS): 4.05 µM
- TGI (SF-539 CNS): > 100 µM
- GI50 (HOP-62 NSCLC): 3.42 µM
- TGI (HOP-62 NSCLC): > 100 µM
- GI50 (SK-MEL-28 melanoma): 10.1 µM
- TGI (SK-MEL-28 melanoma): > 100 µM
- GI50 (SF-295 CNS): 1880 nM
- TGI (SF-295 CNS): 20.3 µM
- GI50 (MALME-3M melanoma): 6.18 µM
- TGI (MALME-3M melanoma): > 72.5 µM
- GI50 (HL-60(TB) leukemia): 2350 nM
- TGI (HL-60(TB) leukemia): 53 µM
- GI50 (EKVX NSCLC): 7.72 µM
- TGI (EKVX NSCLC): > 86.6 µM
- GI50 (NCI-H23 lung): 3.34 µM
- TGI (NCI-H23 lung): > 100 µM
- GI50 (NCI/ADR-RES ovarian): 514 nM
- TGI (NCI/ADR-RES ovarian): 5.26 µM
- GI50 (ACHN renal): 9.6 µM
- TGI (ACHN renal): > 100 µM
- GI50 (KM12 colon): 474 nM
- TGI (KM12 colon): 27.2 µM
- GI50 (OVCAR-5 ovarian): 12.9 µM
- TGI (OVCAR-5 ovarian): > 100 µM
- GI50 (NCI-H522 lung): 799 nM
- TGI (NCI-H522 lung): 9.94 µM
